The text below walks through data of patent US20130150340A1, “6-(4-Hydroxy-phenyl)-1H-pyrazolo[3,4-b]pyridine-4-carboxylic acid amide derivatives as kinase inhibitors” (SANOFI, priority 2011, published 2013).

The target in this experiment is T1, human full-length recombinant PKC βII (Homo sapiens, UniProt P05771).
T1 construct: Active human full-length recombinant PKC βII; purchased Invitrogen GmbH, Darmstadt, Germany
The experiment in a line: Determination of PKC βII inhibition (Caliper mobility-shift kinase assay). The format is biochemical. Particulars: example compounds at a final concentration of 1.14 μM (±0.15 μM); 60 min incubation at 32° C. As to the method:
Determination of PKC 3H Inhibition
PKC βII inhibition was determined according to the following protocol:
Active human full-length recombinant PKC βII and the peptide substrate, Fluorescein-RFARKGSLRQKNV, were purchased from Invitrogen GmbH, Darmstadt, Germany. Adenosine-5′-triphosphate (ATP), bovine serum albumine (BSA), dimethylsulphoxide (DMSO), 4-(2-hydroxyethyl)piperazine-1-ethanesulfonic acid (Hepes), Triton X-100, 1,2-Dioleoyl-sn-glycerol (DAG), L-α-Phosphatidyl-L-serine (PS), calcium chloride (CaCl2), and Pluronic F-68 were purchased from Sigma-Aldrich, Munich, Germany. Magnesium chloride, 1 M sodium hydroxide solution, 1M hydrochloric acid solution and EDTA were obtained from Merck Biosciences, Darmstadt, Germany.
Test compounds were diluted to three times the test concentration in buffer 1 (30 mM Hepes-NaOH, pH 7.4, 0.01% Pluronic F-68 and 3% (v/v) DMSO). The PKC βII enzyme was diluted to a concentration of 30 ng/ml in buffer 2 (30 mM Hepes-NaOH, pH 7.4, 15 mM MgCl2, 150 μM CaCl2, 150 μg/ml PS, 60 μg/ml DAG, and 0.045% (w/v) Triton X-100). The peptide substrate and ATP were diluted to concentrations of 3 μM and 120 μM, respectively, in buffer 2. Two μl of the compound solution were mixed with 2 μl of the diluted enzyme in a 384-well small volume microtiter plate (Greiner, Bio-One, Frickenhausen, Germany), and the kinase reaction was initiated by addition of 2 μl of the solution containing peptide substrate and ATP. After 60 min incubation at 32° C., the reaction was stopped by addition of 20 μl of a solution containing 130 mM Hepes-NaOH, pH 7.4, 0.0195% (v/v) Brij-35, 6.5 mM EDTA, 0.13% chip coating reagent 3 (Caliper Lifescience Inc, Hopkinton, Mass.) and 6.5% (v/v) DMSO. Phosphorylation of the substrate peptide was then detected on a Caliper 3000 instrument essentially as described by Pommereau et al (J. Biomol. Screening 2004, 9(5), […]), Separation conditions were as follows: Pressure −0.8 psi, upstream voltage −3000 V, downstream voltage −800 V. Positive controls (buffer 1 instead of compound) and negative controls (buffer 1 instead of compound and buffer 2 instead of kinase solution) were run in parallel on each plate. Fractional turnover (R) was determined as the height of the peak of the phosphorylated peptide product divided by the sum of the unphosphorylated substrate and phosphorylated product peak heights. Percent-inhibition values for the test compounds were determined using the formula
% Inhibition=100*(1−(Rcompound−Rnegative control)/(Rpositive control−Rnegative control).

Structures are written as SMILES.

T1 sequence (P05771 1-673 isoform P05771-2): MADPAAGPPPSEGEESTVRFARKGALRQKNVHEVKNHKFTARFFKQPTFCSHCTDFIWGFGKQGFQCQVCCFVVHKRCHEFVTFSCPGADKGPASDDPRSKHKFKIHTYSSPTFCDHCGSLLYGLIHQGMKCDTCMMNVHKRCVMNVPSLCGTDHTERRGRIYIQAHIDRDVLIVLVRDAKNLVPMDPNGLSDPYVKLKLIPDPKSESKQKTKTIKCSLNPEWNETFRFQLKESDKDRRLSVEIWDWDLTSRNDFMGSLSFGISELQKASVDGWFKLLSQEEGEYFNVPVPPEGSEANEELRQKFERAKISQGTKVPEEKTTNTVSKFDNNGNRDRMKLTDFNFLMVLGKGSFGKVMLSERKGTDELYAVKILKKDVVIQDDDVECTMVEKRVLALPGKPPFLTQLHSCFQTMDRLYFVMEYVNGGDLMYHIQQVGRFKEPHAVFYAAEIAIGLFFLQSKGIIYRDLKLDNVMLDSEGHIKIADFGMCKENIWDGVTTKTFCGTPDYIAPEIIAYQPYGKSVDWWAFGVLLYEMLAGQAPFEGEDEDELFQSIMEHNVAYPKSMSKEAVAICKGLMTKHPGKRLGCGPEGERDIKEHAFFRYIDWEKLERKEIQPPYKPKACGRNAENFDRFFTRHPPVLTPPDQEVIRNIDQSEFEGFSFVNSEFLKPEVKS

Take `CC(=O)N1CCCN(C(=O)c2cc(-c3ccc(O)cc3)nc3[nH]ncc23)CC1` [Example 59, 1-{4-[6-(4-Hydroxy-phenyl)-1H-pyrazolo[3,4-b]pyridine-4-carbonyl]-[1,4]diazepan-1-yl}-ethanone]: the inhibition (commonly the relative decrease from the control value, in per cent) at 1.14 µM is 48%. With `CC1(C)CC(NC(=O)c2cc(-c3ccc(O)cc3)nc3[nH]ncc23)CC(C)(C)N1` [Example 1, 6-(4-Hydroxy-phenyl)-1H-pyrazolo[3,4-b]pyridine-4-carboxylic acid (2,2,6,6-tetramethyl-piperidin-4-yl)-amide] the figure was 18%; with `CN(C)[C@H]1CCN(C(=O)c2cc(-c3ccc(O)cc3)nc3[nH]ncc23)C1` [Example 55, ((S)-3-Dimethylamino-pyrrolidin-1-yl)-[6-(4-hydroxy-phenyl)-1H-pyrazolo[3,4-b]pyridin-4-yl]-methanone], 47%. The result for `CC(C)N1CCN(C(=O)c2cc(-c3ccc(O)cc3)nc3[nH]ncc23)CC1` [Example 56, [6-(4-Hydroxy-phenyl)-1H-pyrazolo[3,4-b]pyridin-4-yl]-(4-isopropyl-piperazin-1-yl)-methanone] reads 23%; that for `N[C@@H]1CCN(C(=O)c2cc(-c3ccc(O)cc3)nc3[nH]ncc23)C1` [Example 16, ((R)-3-Amino-pyrrolidin-1-yl)-[6-(4-hydroxy-phenyl)-1H-pyrazolo[3,4-b]-pyridin-4-yl]-methanone], 66%.

For the compound `COCCN1CCN(C(=O)c2cc(-c3ccc(O)cc3)nc3[nH]ncc23)CC1` [Example 71, [6-(4-Hydroxy-phenyl)-1H-pyrazolo[3,4-b]pyridin-4-yl]-[4-(2-methoxy-ethyl)-piperazin-1-yl]-methanone], the inhibition at 1.14 µM was 27%.

With `O=C(c1cc(-c2ccc(O)cc2)nc2[nH]ncc12)N1CCC2(CC1)CNCCO2` [Example 26, [6-(4-Hydroxy-phenyl)-1H-pyrazolo[3,4-b]pyridin-4-yl]-(1-oxa-4,9-diaza-spiro[5.5]undec-9-yl)-methanone], the inhibition at 1.14 µM is 36%. With `O=C(c1cc(-c2ccc(O)cc2)nc2[nH]ncc12)N1CCC[C@H]1CN1CCCC1` [Example 54, [6-(4-Hydroxy-phenyl)-1H-pyrazolo[3,4-b]pyridin-4-yl]-((S)-2-pyrrolidin-1-ylmethyl-pyrrolidin-1-yl)-methanone] the figure was 20%; with `O=C(c1cc(-c2ccc(O)cc2)nc2[nH]ncc12)N1CCC2CNCC21` (stereo not shown) [Example 34, (Hexahydro-pyrrolo[3,4-b]pyrrol-1-yl)-[6-(4-hydroxy-phenyl)-1H-pyrazolo[3,4-b]pyridin-4-yl]-methanone], 45%; with `NC1CC(NC(=O)c2cc(-c3ccc(O)cc3)nc3[nH]ncc23)C1` (stereo not shown) [Example 14, 6-(4-Hydroxy-phenyl)-1H-pyrazolo[3,4-b]pyridine-4-carboxylic acid (3-amino-cyclobutyl)-amide], 69%. The result for `CCN1CCCN(C(=O)c2cc(-c3ccc(O)cc3)nc3[nH]ncc23)CC1` [Example 64, (4-Ethyl-[1,4]diazepan-1-yl)-[6-(4-hydroxy-phenyl)-1H-pyrazolo[3,4-b]pyridin-4-yl]-methanone] reads 45%; that for `O=C(NC1CNC1)c1cc(-c2ccc(O)cc2)nc2[nH]ncc12` [Example 35, 6-(4-Hydroxy-phenyl)-1H-pyrazolo[3,4-b]pyridine-4-carboxylic acid azetidin-3-ylamide], 82%. With `CCN1CCCC(NC(=O)c2cc(-c3ccc(O)cc3)nc3[nH]ncc23)C1` (stereo not shown) [Example 60, 6-(4-Hydroxy-phenyl)-1H-pyrazolo[3,4-b]pyridine-4-carboxylic acid (1-ethyl-piperidin-3-yl)-amide] the figure was 54%. For `CN1CCN(C(=O)c2cc(-c3ccc(O)cc3)nc3[nH]ncc23)CC1=O` [Example 76, 4-[6-(4-Hydroxy-phenyl)-1H-pyrazolo[3,4-b]pyridine-4-carbonyl]-1-methyl-piperazin-2-one], the inhibition at 1.14 µM turned out to be 30%. For the compound `O=C(c1cc(-c2ccc(O)cc2)nc2[nH]ncc12)N1CCN(C(=O)C2CCCO2)CC1` (stereo not shown) [Example 61, [6-(4-Hydroxy-phenyl)-1H-pyrazolo[3,4-b]pyridin-4-yl]-[4-(tetrahydro-furan-2-carbonyl)-piperazin-1-yl]-methanone], the inhibition at 1.14 µM turned out to be 22%. For `NC1CCN(C(=O)c2cc(-c3ccc(O)cc3)nc3[nH]ncc23)C1` (stereo not shown) [Example 45, (3-Amino-pyrrolidin-1-yl)-[6-(4-hydroxy-phenyl)-1H-pyrazolo[3,4-b]pyridin-4-yl]-methanone], the inhibition at 1.14 µM turned out to be 50%. The result for `O=C(c1cc(-c2ccc(O)cc2)nc2[nH]ncc12)N1CCCC2(CNCCO2)C1` (stereo not shown) [Example 28, [6-(4-Hydroxy-phenyl)-1H-pyrazolo[3,4-b]pyridin-4-yl]-(1-oxa-4,8-diaza-spiro[5.5]undec-8-yl)-methanone] reads 15%. With `O=C1CCC(CNC(=O)c2cc(-c3ccc(O)cc3)nc3[nH]ncc23)N1` (stereo not shown) [Example 63, 6-(4-Hydroxy-phenyl)-1H-pyrazolo[3,4-b]pyridine-4-carboxylic acid (5-oxo-pyrrolidin-2-ylmethyl)-amide] the figure was 48%.

For the compound `N[C@H]1CC[C@H](NC(=O)c2cc(-c3ccc(O)cc3)nc3[nH]ncc23)CC1` [Example 9, 6-(4-Hydroxy-phenyl)-1H-pyrazolo[3,4-b]pyridine-4-carboxylic acid (trans-4-amino-cyclohexyl)-amide], the inhibition at 1.14 µM was 82%. For `O=C(N[C@H]1CN2CCC1CC2)c1cc(-c2ccc(O)cc2)nc2[nH]ncc12` [Example 18, 6-(4-Hydroxy-phenyl)-1H-pyrazolo[3,4-b]pyridine-4-carboxylic acid-(R)-(1-Aza-bicyclo[2.2.2]oct-3-yl)amide], the inhibition at 1.14 µM turned out to be 72%. The result for `CC1CCN(C2CCN(C(=O)c3cc(-c4ccc(O)cc4)nc4[nH]ncc34)C2)CC1` (stereo not shown) [Example 65, [6-(4-Hydroxy-phenyl)-1H-pyrazolo[3,4-b]pyridin-4-yl]-[3-(4-methyl-piperidin-1-yl)-pyrrolidin-1-yl]-methanone] reads 34%; that for `O=C(NC1CCN(Cc2ccncc2)CC1)c1cc(-c2ccc(O)cc2)nc2[nH]ncc12` [Example 75, 6-(4-Hydroxy-phenyl)-1H-pyrazolo[3,4-b]pyridine-4-carboxylic acid (1-pyridin-4-ylmethyl-piperidin-4-yl)-amide], 45%. With `O=C(c1cc(-c2ccc(O)cc2)nc2[nH]ncc12)N1CC2(CCNCC2)C1` [Example 20, (2,7-Diaza-spiro[3.5]non-2-yl)-[6-(4-hydroxy-phenyl)-1H-pyrazolo[3,4-b]pyridin-4-yl]-methanone] the figure was 77%; with `O=C(c1cc(-c2ccc(O)cc2)nc2[nH]ncc12)N1CCCNCC1` [Example 7, [1,4]Diazepan-1-yl-[6-(4-hydroxy-phenyl)-1H-pyrazolo[3,4-b]pyridin-4-yl]-methanone], 84%.

With `O=C(c1cc(-c2ccc(O)cc2)nc2[nH]ncc12)N1CC2CNCC2C1` (stereo not shown) [Example 46, (Hexahydro-pyrrolo[3,4-c]pyrrol-2-yl)-[6-(4-hydroxy-phenyl)-1H-pyrazolo[3,4-b]pyridin-4-yl]-methanone], the inhibition at 1.14 µM was 39%. Consider `O=C(c1cc(-c2ccc(O)cc2)nc2[nH]ncc12)N1CCC2(CCNCC2)C1` [Example 22, (2,8-Diaza-spiro[4.5]dec-2-yl)-[6-(4-hydroxy-phenyl)-1H-pyrazolo[3,4-b]pyridin-4-yl]-methanone], for which the inhibition at 1.14 µM was determined as 42%. The result for `O=C(N[C@@H]1CCCN(Cc2ccccc2)C1)c1cc(-c2ccc(O)cc2)nc2[nH]ncc12` [Example 77, 6-(4-Hydroxy-phenyl)-1H-pyrazolo[3,4-b]pyridine-4-carboxylic acid ((R)-1-benzyl-piperidin-3-yl)-amide] reads 57%; that for `O=C(c1cc(-c2ccc(O)cc2)nc2[nH]ncc12)N1CCC2(CCNC2)CC1` [Example 43, (2,8-Diaza-spiro[4.5]dec-8-yl)-[6-(4-hydroxy-phenyl)-1H-pyrazolo[3,4-b]pyridin-4-yl]-methanone], 52%.
